Reference: patent publication US20010042341A1, “Vase-added compositions for controlling plant and flower moisture transpiration rates” (priority 2000, published 2001)

Tested on: microorganisms
Details: display water (vase water) of cut flowers; prior art antimicrobial

## O=C(O)CC(O)(CC(=O)O)C(=O)O.Oc1cccc2cccnc12 [8-hydroxy quinoline citrate]
  growth of microorganisms: enhance the growth of microorganisms after an initial diminution of their level
